Laboratory results published in patent US20220009920A1 (GB005, Inc., priority 2020, published 2022).

Tests used:
Experiment in all cases: Large panel kinase profiling
Type in all cases: biochemical
Conditions in all cases: 1 μM test article, 1 mM ATP
MAP4K3/GLK = biological target: T1, MAP4K3/GLK (Homo sapiens, UniProt Q8IVH8)
T1 construct: AssayQuant Technologies, Inc. (service provider)
T1 sequence (Q8IVH8 1-894): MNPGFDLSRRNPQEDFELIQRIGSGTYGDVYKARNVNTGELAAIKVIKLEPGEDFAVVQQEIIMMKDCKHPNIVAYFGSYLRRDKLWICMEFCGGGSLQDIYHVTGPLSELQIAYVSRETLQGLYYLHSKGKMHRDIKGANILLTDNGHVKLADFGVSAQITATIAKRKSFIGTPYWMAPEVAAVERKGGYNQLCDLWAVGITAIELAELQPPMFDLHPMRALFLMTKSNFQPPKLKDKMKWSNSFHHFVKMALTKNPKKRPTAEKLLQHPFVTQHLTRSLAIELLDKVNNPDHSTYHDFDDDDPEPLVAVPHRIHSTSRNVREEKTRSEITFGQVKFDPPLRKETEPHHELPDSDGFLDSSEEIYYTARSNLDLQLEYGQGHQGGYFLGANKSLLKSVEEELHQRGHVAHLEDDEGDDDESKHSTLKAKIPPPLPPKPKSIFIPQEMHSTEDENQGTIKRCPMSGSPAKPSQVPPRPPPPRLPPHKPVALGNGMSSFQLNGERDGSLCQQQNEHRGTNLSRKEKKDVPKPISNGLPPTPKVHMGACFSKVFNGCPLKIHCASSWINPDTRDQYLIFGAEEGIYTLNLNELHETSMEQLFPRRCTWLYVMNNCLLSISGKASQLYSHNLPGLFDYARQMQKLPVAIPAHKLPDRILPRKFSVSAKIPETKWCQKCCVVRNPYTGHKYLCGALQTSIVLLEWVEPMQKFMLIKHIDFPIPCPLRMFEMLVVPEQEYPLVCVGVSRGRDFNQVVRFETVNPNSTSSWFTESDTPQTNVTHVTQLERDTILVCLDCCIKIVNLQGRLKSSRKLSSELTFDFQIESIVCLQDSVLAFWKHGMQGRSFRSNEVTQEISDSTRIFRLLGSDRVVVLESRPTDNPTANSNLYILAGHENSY
Method in brief: (§1)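 With ATP fixed at 1 mM, each kinase was exposed to 1 μM compound in a PhosphoSens CSox-Sensor reaction. Sealed plates were incubated at 30° C. and read in kinetic mode.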

CRIK/CIT = biological target: T2, CRIK/CIT (Homo sapiens, UniProt O14578)
T2 construct: AssayQuant Technologies, Inc. (ran the panel)
Method in brief: as §1

TNIK = biological target: T3, TNIK (Homo sapiens, UniProt Q9UKE5)
T3 construct: AssayQuant Technologies, Inc. (contract laboratory that ran the panel)
T3 sequence (Q9UKE5 whole entry, species assumed): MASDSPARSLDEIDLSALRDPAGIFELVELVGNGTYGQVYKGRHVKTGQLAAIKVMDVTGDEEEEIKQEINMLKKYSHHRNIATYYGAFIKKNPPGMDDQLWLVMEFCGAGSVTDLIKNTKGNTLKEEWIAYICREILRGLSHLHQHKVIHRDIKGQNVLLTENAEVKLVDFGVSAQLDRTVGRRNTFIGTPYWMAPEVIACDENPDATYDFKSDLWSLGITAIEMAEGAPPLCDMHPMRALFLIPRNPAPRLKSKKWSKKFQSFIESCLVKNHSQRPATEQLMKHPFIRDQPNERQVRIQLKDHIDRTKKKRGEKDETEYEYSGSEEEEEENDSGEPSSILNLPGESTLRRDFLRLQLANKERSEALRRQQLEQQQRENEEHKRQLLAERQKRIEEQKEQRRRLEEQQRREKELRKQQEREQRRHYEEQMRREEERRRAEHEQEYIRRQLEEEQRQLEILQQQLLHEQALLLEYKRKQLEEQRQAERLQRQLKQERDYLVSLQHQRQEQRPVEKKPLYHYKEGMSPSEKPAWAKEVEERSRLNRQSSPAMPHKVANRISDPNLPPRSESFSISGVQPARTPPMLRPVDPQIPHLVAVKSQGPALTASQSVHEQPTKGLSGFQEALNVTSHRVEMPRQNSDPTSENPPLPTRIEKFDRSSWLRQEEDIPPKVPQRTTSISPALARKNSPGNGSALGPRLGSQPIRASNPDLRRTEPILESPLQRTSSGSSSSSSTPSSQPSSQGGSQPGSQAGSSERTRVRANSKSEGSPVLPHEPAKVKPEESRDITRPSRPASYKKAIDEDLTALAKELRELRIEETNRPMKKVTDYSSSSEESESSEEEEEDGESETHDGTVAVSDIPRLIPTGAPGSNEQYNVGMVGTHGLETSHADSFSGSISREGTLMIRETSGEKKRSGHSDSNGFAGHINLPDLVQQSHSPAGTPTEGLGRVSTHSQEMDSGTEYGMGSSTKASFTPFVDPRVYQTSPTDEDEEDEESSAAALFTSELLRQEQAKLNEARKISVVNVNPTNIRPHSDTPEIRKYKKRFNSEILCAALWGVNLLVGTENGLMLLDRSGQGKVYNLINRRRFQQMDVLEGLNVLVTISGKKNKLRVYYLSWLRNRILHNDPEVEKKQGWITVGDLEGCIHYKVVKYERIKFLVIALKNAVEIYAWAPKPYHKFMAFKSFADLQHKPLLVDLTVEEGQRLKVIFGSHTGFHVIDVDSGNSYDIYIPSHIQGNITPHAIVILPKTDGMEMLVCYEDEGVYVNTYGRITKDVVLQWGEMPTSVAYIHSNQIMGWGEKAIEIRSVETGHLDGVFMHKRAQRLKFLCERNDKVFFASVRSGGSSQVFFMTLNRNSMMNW
Method in brief: as §1

MAPK12/P38G = biological target: T4, MAPK12/P38G (Homo sapiens, UniProt P53778)
T4 construct: AssayQuant Technologies, Inc. (service provider)
T4 sequence (P53778 1-367): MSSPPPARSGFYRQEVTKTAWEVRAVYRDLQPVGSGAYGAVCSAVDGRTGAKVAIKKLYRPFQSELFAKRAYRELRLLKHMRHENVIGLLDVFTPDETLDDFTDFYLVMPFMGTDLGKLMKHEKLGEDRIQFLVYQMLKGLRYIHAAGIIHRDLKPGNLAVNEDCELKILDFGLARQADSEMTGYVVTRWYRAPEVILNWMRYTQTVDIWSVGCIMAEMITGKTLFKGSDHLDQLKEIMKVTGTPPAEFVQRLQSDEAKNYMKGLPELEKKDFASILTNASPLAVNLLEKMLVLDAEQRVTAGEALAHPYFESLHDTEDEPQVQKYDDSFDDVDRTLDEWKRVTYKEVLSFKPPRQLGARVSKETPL
Method in brief: as §1

ROS = ROS (Homo sapiens, UniProt P08922)
Chain of ROS (P08922 28-2347, species assumed): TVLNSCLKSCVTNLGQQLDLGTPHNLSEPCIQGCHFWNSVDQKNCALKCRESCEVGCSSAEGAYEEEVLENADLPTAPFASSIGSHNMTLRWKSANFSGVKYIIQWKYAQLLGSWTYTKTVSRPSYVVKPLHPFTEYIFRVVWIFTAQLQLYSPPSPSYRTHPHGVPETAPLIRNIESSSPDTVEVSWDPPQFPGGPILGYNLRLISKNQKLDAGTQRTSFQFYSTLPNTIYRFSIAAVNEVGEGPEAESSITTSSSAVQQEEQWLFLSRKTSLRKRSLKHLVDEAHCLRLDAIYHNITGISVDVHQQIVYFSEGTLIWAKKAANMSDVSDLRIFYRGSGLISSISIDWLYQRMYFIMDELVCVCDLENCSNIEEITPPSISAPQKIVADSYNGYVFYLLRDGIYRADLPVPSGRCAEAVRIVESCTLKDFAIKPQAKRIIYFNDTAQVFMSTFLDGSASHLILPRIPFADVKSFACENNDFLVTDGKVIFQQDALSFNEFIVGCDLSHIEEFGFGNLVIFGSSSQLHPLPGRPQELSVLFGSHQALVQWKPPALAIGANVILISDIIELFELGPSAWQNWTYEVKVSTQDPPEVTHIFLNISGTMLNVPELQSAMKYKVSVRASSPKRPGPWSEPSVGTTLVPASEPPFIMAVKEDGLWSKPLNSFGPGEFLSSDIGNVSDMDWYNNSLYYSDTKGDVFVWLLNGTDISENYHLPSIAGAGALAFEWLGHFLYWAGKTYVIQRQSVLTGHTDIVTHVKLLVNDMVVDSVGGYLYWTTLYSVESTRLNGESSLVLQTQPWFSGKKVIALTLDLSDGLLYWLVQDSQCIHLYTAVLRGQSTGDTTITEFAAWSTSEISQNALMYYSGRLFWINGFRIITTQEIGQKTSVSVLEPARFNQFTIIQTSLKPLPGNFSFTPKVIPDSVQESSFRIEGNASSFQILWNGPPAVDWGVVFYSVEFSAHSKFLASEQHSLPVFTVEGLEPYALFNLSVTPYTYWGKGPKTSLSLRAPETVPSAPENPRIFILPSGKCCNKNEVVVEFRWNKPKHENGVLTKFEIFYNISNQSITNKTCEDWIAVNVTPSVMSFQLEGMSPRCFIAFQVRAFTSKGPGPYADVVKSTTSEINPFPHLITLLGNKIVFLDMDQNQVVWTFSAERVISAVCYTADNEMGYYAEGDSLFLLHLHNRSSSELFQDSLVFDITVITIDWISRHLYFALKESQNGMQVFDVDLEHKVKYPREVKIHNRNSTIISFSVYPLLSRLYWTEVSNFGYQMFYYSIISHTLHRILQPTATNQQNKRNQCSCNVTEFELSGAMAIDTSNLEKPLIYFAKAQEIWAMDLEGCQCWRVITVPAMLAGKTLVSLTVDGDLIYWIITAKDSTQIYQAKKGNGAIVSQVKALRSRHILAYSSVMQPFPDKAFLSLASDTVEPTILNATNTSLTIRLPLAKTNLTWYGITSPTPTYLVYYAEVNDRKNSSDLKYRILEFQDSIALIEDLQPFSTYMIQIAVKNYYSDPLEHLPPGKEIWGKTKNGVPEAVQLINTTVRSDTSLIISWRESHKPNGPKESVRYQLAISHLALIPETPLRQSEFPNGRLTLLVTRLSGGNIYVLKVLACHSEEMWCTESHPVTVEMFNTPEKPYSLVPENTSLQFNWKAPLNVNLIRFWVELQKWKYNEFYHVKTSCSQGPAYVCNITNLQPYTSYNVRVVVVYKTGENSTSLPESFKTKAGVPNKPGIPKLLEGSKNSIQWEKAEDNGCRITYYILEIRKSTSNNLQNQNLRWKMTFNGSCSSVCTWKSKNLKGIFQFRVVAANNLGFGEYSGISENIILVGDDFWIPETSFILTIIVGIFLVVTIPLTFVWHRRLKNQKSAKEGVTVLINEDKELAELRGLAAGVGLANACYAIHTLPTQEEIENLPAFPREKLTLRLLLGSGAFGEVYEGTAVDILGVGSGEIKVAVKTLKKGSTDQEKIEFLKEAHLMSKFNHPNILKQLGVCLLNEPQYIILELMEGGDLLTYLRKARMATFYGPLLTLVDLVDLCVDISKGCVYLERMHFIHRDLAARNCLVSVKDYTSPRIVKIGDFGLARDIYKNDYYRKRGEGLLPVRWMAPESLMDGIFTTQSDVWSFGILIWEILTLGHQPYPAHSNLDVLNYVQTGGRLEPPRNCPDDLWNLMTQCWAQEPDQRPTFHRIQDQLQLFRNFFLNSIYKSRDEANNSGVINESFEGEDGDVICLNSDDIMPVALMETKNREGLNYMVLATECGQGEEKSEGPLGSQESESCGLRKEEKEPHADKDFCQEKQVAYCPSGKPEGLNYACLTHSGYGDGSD
Method in brief: as §1

FGR = FGR (Homo sapiens, UniProt P09769)
Chain of FGR (P09769 whole entry, species assumed): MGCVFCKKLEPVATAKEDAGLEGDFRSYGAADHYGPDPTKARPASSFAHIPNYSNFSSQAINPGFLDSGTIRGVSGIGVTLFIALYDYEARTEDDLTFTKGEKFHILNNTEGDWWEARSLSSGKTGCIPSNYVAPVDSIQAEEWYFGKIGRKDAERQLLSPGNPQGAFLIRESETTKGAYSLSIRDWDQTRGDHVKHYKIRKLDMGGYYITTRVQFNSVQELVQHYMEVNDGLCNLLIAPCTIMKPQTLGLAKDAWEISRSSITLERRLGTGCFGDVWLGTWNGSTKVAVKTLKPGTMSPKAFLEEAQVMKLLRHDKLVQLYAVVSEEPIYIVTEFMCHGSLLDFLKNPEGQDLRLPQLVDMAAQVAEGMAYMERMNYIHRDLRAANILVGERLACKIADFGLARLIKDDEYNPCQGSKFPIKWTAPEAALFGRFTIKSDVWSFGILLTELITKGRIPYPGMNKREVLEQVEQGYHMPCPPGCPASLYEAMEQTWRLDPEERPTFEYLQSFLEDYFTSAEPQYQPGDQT
Method in brief: as §1

RPS6KA3/RSK2 = biological target: T5, RPS6KA3/RSK2 (Homo sapiens, UniProt P51812)
T5 construct: AssayQuant Technologies, Inc. (contract assay)
Method in brief: as §1

RPS6KA1/RSK1 = RPS6KA1/RSK1 (Homo sapiens, UniProt Q15418)
Chain of RPS6KA1/RSK1 (Q15418 whole entry): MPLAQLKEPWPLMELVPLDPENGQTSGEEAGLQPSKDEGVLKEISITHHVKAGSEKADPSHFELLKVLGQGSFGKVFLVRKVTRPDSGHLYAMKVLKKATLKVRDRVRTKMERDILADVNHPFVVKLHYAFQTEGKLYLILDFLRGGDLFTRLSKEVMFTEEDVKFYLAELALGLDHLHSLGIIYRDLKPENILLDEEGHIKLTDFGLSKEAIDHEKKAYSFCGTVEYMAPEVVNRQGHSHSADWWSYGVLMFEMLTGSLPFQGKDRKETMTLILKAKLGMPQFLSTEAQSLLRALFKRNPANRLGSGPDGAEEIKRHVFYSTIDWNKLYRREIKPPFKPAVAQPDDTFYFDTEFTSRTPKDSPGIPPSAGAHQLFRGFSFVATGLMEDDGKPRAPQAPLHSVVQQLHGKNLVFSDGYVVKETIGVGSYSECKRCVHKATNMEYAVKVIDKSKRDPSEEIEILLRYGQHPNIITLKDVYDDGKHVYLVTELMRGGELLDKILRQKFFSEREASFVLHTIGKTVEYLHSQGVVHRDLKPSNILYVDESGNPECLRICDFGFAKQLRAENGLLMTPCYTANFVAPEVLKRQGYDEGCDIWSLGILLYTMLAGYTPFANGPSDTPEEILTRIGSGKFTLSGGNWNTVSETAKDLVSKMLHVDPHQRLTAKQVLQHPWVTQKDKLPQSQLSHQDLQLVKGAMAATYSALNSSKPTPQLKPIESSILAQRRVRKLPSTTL
Method in brief: as §1

For `C=CC(=O)N1CCCC(c2c(F)cc(C(N)=O)c3[nH]c4c(c23)CCCCC4)C1` (single isomer, unassigned) [Compound 5-6], the inhibition at 1 µM (MAP4K3/GLK) was -7.3%, the inhibition at 1 µM (CRIK/CIT) was -9.9% and the inhibition at 1 µM (TNIK) was 9.9%. The inhibition at 1 µM (MAPK12/P38G) was -1.9%, the inhibition at 1 µM (ROS) was -35.7% and the inhibition at 1 µM (FGR) was 17.1%. It also gave an inhibition at 1 µM (RPS6KA3/RSK2) of 5.8% and an inhibition at 1 µM (RPS6KA1/RSK1) of 6.7%.
Compound `C=CC(=O)N1CCC[C@@H](c2c(F)cc(C(N)=O)c3[nH]c4c(c23)CC2(CC4)CC2)C1` [Compound 6-2, (S)-5-(1-acryloylpiperidin-3-yl)-6-fluoro-1,2,4,9-tetrahydrospiro[carbazole-3,1′-cyclopropane]-8-carboxamide] has an inhibition at 1 µM (MAP4K3/GLK) of 6.2%, an inhibition at 1 µM (CRIK/CIT) of 9.1% and an inhibition at 1 µM (TNIK) of -29.3%. For the same compound, the inhibition at 1 µM (MAPK12/P38G) was 31.3%, the inhibition at 1 µM (ROS) was -3.6% and the inhibition at 1 µM (FGR) was -25.9%. The inhibition at 1 µM (RPS6KA3/RSK2) was -34.6% and the inhibition at 1 µM (RPS6KA1/RSK1) was -49.1%.
Work on `C=CC(=O)N1CCC[C@@H](c2c(F)cc(C(N)=O)c3[nH]c4c(c23)CCC4)C1` [Compound 10-2, (S)-8-(1-acryloylpiperidin-3-yl)-7-fluoro-1,2,3,4-tetrahydrocyclo-penta[b]indole-5-carboxamide] yielded an inhibition at 1 µM (MAP4K3/GLK) of 5%, an inhibition at 1 µM (CRIK/CIT) of 11.1% and an inhibition at 1 µM (TNIK) of -22.9%. It also gave an inhibition at 1 µM (MAPK12/P38G) of 4.2%, an inhibition at 1 µM (ROS) of -22% and an inhibition at 1 µM (FGR) of 3.6%. For the same compound, the inhibition at 1 µM (RPS6KA3/RSK2) was -27.7% and the inhibition at 1 µM (RPS6KA1/RSK1) was -29.2%.
